Molecular target: TRPM2 (transient receptor potential cation channel, subfamily melastatin, member 2) (Homo sapiens, UniProt O94759)
Assay: whole-cell patch clamp with ADPR infused through the pipette
Format: cell-based

TRPM2 (transient receptor potential cation channel, subfamily melastatin, member 2), sequence (O94759 whole entry, the tested form may be a part): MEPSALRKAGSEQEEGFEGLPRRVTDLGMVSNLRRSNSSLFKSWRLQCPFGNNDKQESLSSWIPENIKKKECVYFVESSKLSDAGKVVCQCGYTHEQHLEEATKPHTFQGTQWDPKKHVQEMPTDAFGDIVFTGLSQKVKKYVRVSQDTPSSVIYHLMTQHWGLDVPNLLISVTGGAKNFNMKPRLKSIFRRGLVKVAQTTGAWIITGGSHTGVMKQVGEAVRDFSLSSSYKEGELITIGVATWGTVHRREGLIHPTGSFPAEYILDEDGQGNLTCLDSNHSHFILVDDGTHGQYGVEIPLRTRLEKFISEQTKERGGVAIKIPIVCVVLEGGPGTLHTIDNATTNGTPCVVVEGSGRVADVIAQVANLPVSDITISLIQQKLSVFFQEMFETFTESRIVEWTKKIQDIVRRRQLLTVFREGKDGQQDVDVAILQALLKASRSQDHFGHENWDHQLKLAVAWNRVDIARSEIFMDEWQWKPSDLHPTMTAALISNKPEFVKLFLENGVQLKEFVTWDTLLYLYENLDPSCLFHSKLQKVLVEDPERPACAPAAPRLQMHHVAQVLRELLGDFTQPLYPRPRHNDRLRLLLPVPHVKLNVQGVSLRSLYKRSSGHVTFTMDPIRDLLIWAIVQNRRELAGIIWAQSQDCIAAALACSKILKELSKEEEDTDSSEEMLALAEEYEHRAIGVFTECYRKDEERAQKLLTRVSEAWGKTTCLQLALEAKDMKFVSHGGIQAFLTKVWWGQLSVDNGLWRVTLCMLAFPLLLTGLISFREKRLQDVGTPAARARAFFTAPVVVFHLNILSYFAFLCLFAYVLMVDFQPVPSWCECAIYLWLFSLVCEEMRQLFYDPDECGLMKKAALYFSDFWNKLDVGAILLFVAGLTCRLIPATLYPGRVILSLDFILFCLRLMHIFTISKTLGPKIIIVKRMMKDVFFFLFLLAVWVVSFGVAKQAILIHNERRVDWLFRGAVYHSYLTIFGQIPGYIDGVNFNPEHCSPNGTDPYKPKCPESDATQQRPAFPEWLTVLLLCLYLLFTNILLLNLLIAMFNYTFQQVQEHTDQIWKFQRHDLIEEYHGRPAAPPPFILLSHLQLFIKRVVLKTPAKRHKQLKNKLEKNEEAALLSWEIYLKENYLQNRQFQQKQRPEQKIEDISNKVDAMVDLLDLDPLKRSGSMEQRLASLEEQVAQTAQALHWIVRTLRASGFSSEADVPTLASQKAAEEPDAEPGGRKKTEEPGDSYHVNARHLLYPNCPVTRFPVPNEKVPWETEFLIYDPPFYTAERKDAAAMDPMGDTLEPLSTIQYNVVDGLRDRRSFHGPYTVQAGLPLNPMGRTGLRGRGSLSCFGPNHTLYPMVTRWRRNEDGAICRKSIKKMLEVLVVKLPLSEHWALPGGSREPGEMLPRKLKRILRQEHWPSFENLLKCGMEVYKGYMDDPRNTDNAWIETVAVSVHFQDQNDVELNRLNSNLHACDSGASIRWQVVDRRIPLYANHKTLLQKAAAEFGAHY

EC50: 133 µM
SMILES: Nc1ncnc2c1ncn2[C@@H]1O[C@H](COP(=O)(O)OP(=O)(O)OC[C@H]2OC(O)[C@H](O)[C@@H]2O)[C@@H](O)[C@H]1O (stereo partly shown) [ADPR]

— PMC2782309 (2009)
